Source: PubChem BioAssay (NCI)
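48-hour exposure; five concentrations; linearly interpolated endpoints. GI50 = concentration required for 50% inhibition of growth. TGI: total growth inhibition.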

Columns and labels:
Assay in all cases: NCI-60 cell line screen, 48 h
786-0 renal = tested on: 786-0 renal
A498 renal = tested on: A498 renal
A549 NSCLC = tested on: A549 NSCLC
ACHN renal = tested on: ACHN renal
BT-549 breast = tested on: BT-549 breast
CAKI-1 renal = tested on: CAKI-1 renal
CCRF-CEM leukemia = tested on: CCRF-CEM leukemia
COLO 205 colon = tested on: COLO 205 colon
DU-145 prostate = tested on: DU-145 prostate
EKVX NSCLC = tested on: EKVX NSCLC
HCC-2998 colon = tested on: HCC-2998 colon
HCT-116 colon = tested on: HCT-116 colon
HCT-15 colon = tested on: HCT-15 colon
HOP-62 NSCLC = tested on: HOP-62 NSCLC
HOP-92 NSCLC = tested on: HOP-92 NSCLC
HS 578T breast = tested on: HS 578T breast
HT29 colon = tested on: HT29 colon
K-562 leukemia = tested on: K-562 leukemia
KM12 colon = tested on: KM12 colon
LOX IMVI melanoma = tested on: LOX IMVI melanoma
M14 melanoma = tested on: M14 melanoma
MCF7 breast = tested on: MCF7 breast
MDA-MB-231 breast = tested on: MDA-MB-231 breast
MDA-MB-435 = tested on: MDA-MB-435
MOLT-4 leukemia = tested on: MOLT-4 leukemia
NCI-H23 lung = tested on: NCI-H23 lung
NCI-H460 lung = tested on: NCI-H460 lung
NCI/ADR-RES ovarian = tested on: NCI/ADR-RES ovarian
OVCAR-3 ovarian = tested on: OVCAR-3 ovarian
OVCAR-4 ovarian = tested on: OVCAR-4 ovarian
OVCAR-5 ovarian = tested on: OVCAR-5 ovarian
OVCAR-8 ovarian = tested on: OVCAR-8 ovarian
PC-3 prostate = tested on: PC-3 prostate
RPMI-8226 leukemia = tested on: RPMI-8226 leukemia
RXF 393 renal = tested on: RXF 393 renal
SF-268 CNS = tested on: SF-268 CNS
SF-295 CNS = tested on: SF-295 CNS
SF-539 CNS = tested on: SF-539 CNS
SK-MEL-28 melanoma = tested on: SK-MEL-28 melanoma
SK-MEL-5 melanoma = tested on: SK-MEL-5 melanoma
SK-OV-3 ovarian = tested on: SK-OV-3 ovarian
SN12C renal = tested on: SN12C renal
SNB-19 CNS = tested on: SNB-19 CNS
SR leukemia = tested on: SR leukemia
SW-620 colon = tested on: SW-620 colon
T-47D breast = tested on: T-47D breast
TK-10 renal = tested on: TK-10 renal
U251 CNS = tested on: U251 CNS
UACC-257 melanoma = tested on: UACC-257 melanoma
UACC-62 melanoma = tested on: UACC-62 melanoma

## CC(=O)OCC1OC(OC2CCCC[Si](c3ccccc3)(c3ccccc3)O2)C(OC(C)=O)C(OC(C)=O)C1OC(C)=O (stereo not given)
786-0 renal
  GI50: > 100 µM
  TGI: > 100 µM
A498 renal
  GI50: > 100 µM
  TGI: > 100 µM
A549 NSCLC
  GI50: > 100 µM
  TGI: > 100 µM
ACHN renal
  GI50: > 100 µM
  TGI: > 100 µM
BT-549 breast
  GI50: > 100 µM
  TGI: > 100 µM
CAKI-1 renal
  GI50: 38.9 µM
  TGI: > 100 µM
CCRF-CEM leukemia
  GI50: 35.5 µM
  TGI: > 100 µM
COLO 205 colon
  GI50: > 100 µM
  TGI: > 100 µM
DU-145 prostate
  GI50: > 100 µM
  TGI: > 100 µM
EKVX NSCLC
  GI50: > 100 µM
  TGI: > 100 µM
HCC-2998 colon
  GI50: > 100 µM
  TGI: > 100 µM
HCT-116 colon
  GI50: 24.5 µM
  TGI: 59.2 µM
HCT-15 colon
  GI50: > 100 µM
  TGI: > 100 µM
HOP-62 NSCLC
  GI50: > 100 µM
  TGI: > 100 µM
HOP-92 NSCLC
  GI50: > 100 µM
  TGI: > 100 µM
HS 578T breast
  GI50: > 100 µM
  TGI: > 100 µM
HT29 colon
  GI50: > 100 µM
  TGI: > 100 µM
K-562 leukemia
  GI50: 56.1 µM
  TGI: > 100 µM
KM12 colon
  GI50: > 100 µM
  TGI: > 100 µM
LOX IMVI melanoma
  GI50: 53.6 µM
  TGI: > 100 µM
M14 melanoma
  GI50: > 100 µM
  TGI: > 100 µM
MCF7 breast
  GI50: 69.2 µM
  TGI: > 100 µM
MDA-MB-231 breast
  GI50: > 100 µM
  TGI: > 100 µM
MDA-MB-435
  GI50: 51 µM
  TGI: > 100 µM
MOLT-4 leukemia
  GI50: 10.3 µM
  TGI: > 100 µM
NCI-H23 lung
  GI50: > 100 µM
  TGI: > 100 µM
NCI-H460 lung
  GI50: > 100 µM
  TGI: > 100 µM
NCI/ADR-RES ovarian
  GI50: > 100 µM
  TGI: > 100 µM
OVCAR-3 ovarian
  GI50: 13.3 µM
  TGI: 69.5 µM
OVCAR-4 ovarian
  GI50: > 100 µM
  TGI: > 100 µM
OVCAR-5 ovarian
  GI50: > 100 µM
  TGI: > 100 µM
OVCAR-8 ovarian
  GI50: > 100 µM
  TGI: > 100 µM
PC-3 prostate
  GI50: > 100 µM
  TGI: > 100 µM
RPMI-8226 leukemia
  GI50: 32.6 µM
  TGI: > 100 µM
RXF 393 renal
  GI50: > 100 µM
  TGI: > 100 µM
SF-268 CNS
  GI50: > 100 µM
  TGI: > 100 µM
SF-295 CNS
  GI50: > 100 µM
  TGI: > 100 µM
SF-539 CNS
  GI50: 29.2 µM
  TGI: 79.1 µM
SK-MEL-28 melanoma
  GI50: > 100 µM
  TGI: > 100 µM
SK-MEL-5 melanoma
  GI50: > 100 µM
  TGI: > 100 µM
SK-OV-3 ovarian
  GI50: > 100 µM
  TGI: > 100 µM
SN12C renal
  GI50: > 100 µM
  TGI: > 100 µM
SNB-19 CNS
  GI50: > 100 µM
  TGI: > 100 µM
SR leukemia
  GI50: 73.6 µM
  TGI: > 100 µM
SW-620 colon
  GI50: 53 µM
  TGI: > 100 µM
T-47D breast
  GI50: > 100 µM
  TGI: > 100 µM
TK-10 renal
  GI50: > 100 µM
  TGI: > 100 µM
U251 CNS
  GI50: > 100 µM
  TGI: > 100 µM
UACC-257 melanoma
  GI50: > 100 µM
  TGI: > 100 µM
UACC-62 melanoma
  GI50: > 100 µM
  TGI: > 100 µM
